Test results as given in publication PMC2669305 (Assay and drug development technologies, 2008).
pIC50: −log10 of the molar value.

Target: T1, thioredoxin glutathione reductase (TGR) (Schistosoma mansoni, UniProt Q962Y6)
T1 sequence (Q962Y6 1-598): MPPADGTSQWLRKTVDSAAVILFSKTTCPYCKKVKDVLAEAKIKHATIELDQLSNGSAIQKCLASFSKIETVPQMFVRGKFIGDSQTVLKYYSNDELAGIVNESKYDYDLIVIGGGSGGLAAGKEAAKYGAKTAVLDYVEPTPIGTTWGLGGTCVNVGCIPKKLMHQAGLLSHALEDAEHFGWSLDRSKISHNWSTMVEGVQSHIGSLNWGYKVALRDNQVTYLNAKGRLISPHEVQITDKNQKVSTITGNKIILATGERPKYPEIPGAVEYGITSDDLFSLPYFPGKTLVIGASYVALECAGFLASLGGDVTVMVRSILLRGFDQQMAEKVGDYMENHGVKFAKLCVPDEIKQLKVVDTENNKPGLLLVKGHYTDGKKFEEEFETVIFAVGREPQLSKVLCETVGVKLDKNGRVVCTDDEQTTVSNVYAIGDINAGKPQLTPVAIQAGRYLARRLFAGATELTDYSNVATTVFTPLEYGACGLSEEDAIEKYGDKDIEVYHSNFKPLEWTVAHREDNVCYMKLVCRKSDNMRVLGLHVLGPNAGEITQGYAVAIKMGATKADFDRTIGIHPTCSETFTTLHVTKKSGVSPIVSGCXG
Assay type: biochemical

pIC50: 5.10 to 5.40
SMILES: N#Cc1c(-c2ccccc2)no[n+]1[O-] [furoxan, 4-phenyl-3-furoxancarbonitrile]
